Experimental data as given in US8617563B2, “Antichlamydial agents” (Duke University, priority 2011, dated 2013).
Where a SMILES comes first, the peptide text is derived from it. [ ]: non-standard residue; d: D form. The star is where a group is joined. 2Abz = Nc1ccccc1C(=O)O; Cbz = O=C(OCc1ccccc1)*; CH2F = FC*

Tests used:
[1] = test system: epithelial cells infected with C. trachomatis; assay: Host cell death (condensed nuclei) in C. trachomatis infected cells; assay type: cell-based; settings: caspase inhibitor added before the CPAF inhibitor peptide
Method: FIG. 11 depicts (A) that inhibiting CPAF activity induces host cell death. The indicated peptides (anti-CPAF peptide refers to SEQ ID NO:7) were added to infected cells 12 hpi and the percentage of infected cells with condensed nuclei was quantified at the indicated times. (B-C) Inhibition of CPAF activity induces apoptosis. Infected cells were treated with peptides and the percentage of AnnexinV-FITC positive (propidium iodide (PI) negative) was determined by flow cytometry (B). In parallel samples, cleavage of Caspase-3, a hallmark of apoptosome activation, was monitored by immunoblot analysis. Actin and MOMP are host and bacterial loading controls respectively. Staurosporine (2 μM)-treatment was used as a positive control and the pan-caspase inhibitor ZVAD-FMK were used as controls. (D) Cell death is blocked by a pan-Caspase inhibitor. Infected cells were treated as in (A) in the presence or absence of ZVAD-FMK, labeled with PI and analyzed by flow cytometry. Cells pre-treated with ZVAD-FMK and the control peptide lacked PI staining.
FIG. 12 depicts (A) low-magnification view of C. trachomatis LGV-L2 infected HeLa monolayers (30 h) treated with SEQ ID NO:7 or SEQ ID NO:11 peptides. […] HeLa cells infected with C. muridarum were treated with Ac-YVAD-CMK at 2 hpi, SEQ ID NO:7 peptide or SEQ ID NO:11 control peptide at 12 hpi and the percentage of infected cells with condensed nuclei was assessed at 48 hpi (F). […] The percentage of infected cells with condensed nuclei was assessed at 48 hpi (G). […] Cell death in infected and uninfected cells treated with CPAF inhibitory peptides or control peptides was determined by counting the number of condensed nuclei of ˜1000 cells.
FIG. 13 depicts (A) that Caspase-1 inhibitors block Chlamydia-mediated cell death. […] Cells were fixed and the percentage of cells with condensed nuclei determined at 24 hpi. […] Infected cells were labeled with a cell-permeable fluorescent substrate of Caspase-1 and treated with inhibitory peptides, and Caspase-1 activity was monitored by flow cytometry. […]

[2] = target: T1, CPAF (Chlamydia trachomatis serovar D, UniProt O84866); assay type: biochemical, C. trachomatis; parameters: 6xHis; made in house; host or cells: E. coli (pET30b); settings: GST-chlamydial substrates in presence of peptides
Method: FIG. 4 depicts (A) Recombinant Chlamydia ORFs were tested for sensitivity to host and bacterial derived proteases. […] Purified his-tagged CPAF was incubated with GST-tagged chlamydial substrates at 37° C. for 20 min with increasing amounts of lactacystin. Cleavage products were run on an SDS PAGE gel and visualized with Coomassie blue staining. (C) Schematic summary of CPAF targets. […] Membranes from Chlamydia-infected HeLa cells were harvested and purified at 0, 24, 36 and 48 hours post-infection, and the abundance of the chlamydial proteins Ct005, IncC and IncD were monitored with specific antibodies. Na/K ATPase and IncG served as host and bacterial-loading controls, respectively.
Cytosols from Chlamydia-infected HeLa cells (40 hrs) or recombinant his-tagged CPAF were pre-treated with rabbit polyclonal anti-CPAF or anti-IncA antisera, and incubated with GST-tagged Chlamydia proteins for 20 min at 37° C. […] Three example proteins shown include a type-III secretion (T3S) core component (CdsQ) a T3S chaperone (Mcsc) and a T3S needle component (Ct584). Processing of recombinant proteins in A-B were monitored by immunoblot analysis with specific antibodies. (C) Protease inhibitor profile of recombinant CPAF. Example shown for the chlamydial substrate GST-IncC. Degradation products were visualized by SDS-PAGE followed by staining with Coomassie blue. […]
Uninfected and HeLa cells pre-infected with L2 for 30 hrs were treated with inhibitory peptides and infected with EBs for 10 min Tarp translocation was indirectly visualized with an anti-phosphotyrosine antibody (A) and quantified by counting 50 separate cells (B). The stability of newly translocated Tarp was assessed by infecting cells as in (A) but with S^35-labeled EBs, followed by sequential immunoprecipitation of Tarp and MOMP and Phosphoimager analysis of precipitated material (C (I-IV)). […] IC50 values were determined by assessing CPAF cleavage of an Abz-tagged CPAF substrate (SEQ ID NO:9) by HPLC. […] Extracellular bacteria were determined. […] The number of internalized EBs was quantified per cell (H). […]
Target sequence in this assay (O84866 1-234, added parts left off): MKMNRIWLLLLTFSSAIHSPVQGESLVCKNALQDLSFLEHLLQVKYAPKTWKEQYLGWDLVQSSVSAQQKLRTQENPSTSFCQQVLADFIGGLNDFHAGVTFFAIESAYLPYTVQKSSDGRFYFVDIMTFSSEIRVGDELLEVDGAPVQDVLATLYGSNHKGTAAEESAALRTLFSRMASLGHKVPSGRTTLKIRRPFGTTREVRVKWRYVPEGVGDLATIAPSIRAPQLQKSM
Target sequence in this assay (O84866 276-601): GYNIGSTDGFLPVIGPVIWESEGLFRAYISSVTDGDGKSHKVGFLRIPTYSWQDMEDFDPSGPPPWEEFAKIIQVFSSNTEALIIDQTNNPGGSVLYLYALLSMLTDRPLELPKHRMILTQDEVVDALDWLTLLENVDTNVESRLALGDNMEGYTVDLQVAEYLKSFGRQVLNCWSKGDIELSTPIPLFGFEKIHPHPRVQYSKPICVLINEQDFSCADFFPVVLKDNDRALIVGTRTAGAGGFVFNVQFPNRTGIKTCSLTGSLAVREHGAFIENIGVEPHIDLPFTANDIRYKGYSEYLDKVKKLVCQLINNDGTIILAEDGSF

[3] = test system: C. muridarum; assay: C. muridarum growth in HeLa cells (recovered IFUs); assay type: cell-based; settings: caspase-1 inhibitor at 2 hpi
Method: Cells were infected with an MOI of 1 and treated with CPAF inhibitor (SEQ ID NO:7) or control (SEQ ID NO:11) peptides at 12 hpi, fixed at 24 hpi and analyzed by IF with anti-L2 polyclonal antisera. Inclusion size was determined by measuring the inclusion diameter in μm by confocal microscopy of 50 infected cells. The number of cells with fragmented inclusions was determined by counting the number of infected cells out of 50 with more than one inclusion. (C) Sequence alignment and % sequence identify of full length CPAF and predicted inhibitory peptide sequence between C. trachomatis serovar LGV-L2, Chlamydia muridarum, and Chlamydophila caviae was determined using Geneious software (available at the Geneious website). […] GPIC or C. muridarum infected whole cell protein lysate was preincubated with SEQ ID NO:7 peptide or SEQ ID NO:11 control peptide, mixed with GST-IncC at 37° C., resolved by SDS-PAGE and stained with Coomassie blue. […] Inhibition of C. muridarum (E) and C. ceviae (F) growth was determined by counting the number of recovered IFUs. […] Inclusions were detected by IF with anti-LGV-L2 (A, B, E) antisera or anti-chlamydial LPS (F) monoclonal antibodies, and host nuclei sere detected by staining.

[4] = target: T1, CPAF; assay: HPLC-based CPAF enzyme kinetics with model substrate; assay type: biochemical, C. trachomatis; parameters: 6xHis; made in house; host or cells: E. coli BL21 (DE3), plasmid pET30b-CPAF; settings: CPAF 62.5 nM, substrate 0-6 mM, 25° C.
Method: Proteolytic enzyme kinetics of CPAF were measured using an HPLC-based assay that quantifies the cleavage of an Abz-tagged model CPAF substrate derived from human vimentin:
Standard assays were performed in a total volume of 100 μL containing Assay Buffer (150 mM NaCl, 50 mM Tris pH 7.5), CPAF (62.5 nM), and varying concentrations (0-6 mM) of CPAF substrate (SEQ ID NO:9). Reactions were initiated by the addition of enzyme and incubated at 25° C. for 90 seconds. Incubation was followed by removal of 80 μL aliquots and quenched by the addition of 40 μL 1.2 M HCl. […] Abz-containing peptides were detected by fluorescence emission at 420 nm, and the composition and identity of each product were confirmed by mass spectrometry by LCMS. […] The percentage of substrate converted to product was calculated from the HPLC data by integrating the area under the peaks in the chromatograms using PeakFit v4.11 (available from Systat Software), followed by analysis in Grafit 6.0 (available from Erithacus Software) using the following equation: […]
Target sequence in this assay (O84866 276-601): as above
Target sequence in this assay (O84866 1-234, added parts left off): as the sequence (O84866 1-234, added parts left off) above

COC(=O)C[C@H](NC(=O)[C@H](C)NC(=O)[C@@H](NC(=O)OCc1ccccc1)C(C)C)C(=O)CF [ZVAD-FMK] (Cbz-Val-Ala-Asp(OMe)-CH2F)
Block of death of Chlamydia-infected cells treated with SEQ ID NO:7 [1]: efficiently blocked the death

H-NFALSHFRLPLSTYKEMPYVSHWAGRRRRRRRRR-NH2 [SEQ ID NO:11, reference compound]
Inhibition of degradation of CPAF substrates in vitro [2]: no CPAF inhibitory activity in vitro

CC(=O)N[C@@H](Cc1ccc(O)cc1)C(=O)N[C@H](C(=O)N[C@@H](C)C(=O)N[C@@H](CC(=O)O)C(=O)CCl)C(C)C [Ac-YVAD-CMK, reference compound]
Rescue of C. muridarum growth defect in cells treated with SEQ ID NO:7 [3]: does not rescue the growth defect
Block of death of Chlamydia-infected cells treated with SEQ ID NO:7 [1]: efficiently blocked the death

CC(C)C[C@H](NC(=O)[C@H](CCCNC(=N)N)NC(=O)[C@@H](NC(=O)c1ccccc1N)C(C)C)C(=O)N[C@@H](CCCNC(=N)N)C(=O)N[C@@H](CO)C(=O)N[C@@H](CO)C(=O)N[C@H](C(=O)N1CCC[C@H]1C(=O)NCC(=O)N[C@H](C(N)=O)C(C)C)C(C)C [SEQ ID NO:9, Abz-V-R-L-R-S-S-V-P-G-V-NH2] (H-[2Abz]VRLRSSVPGV-NH2)
kcat of CPAF proteolysis of model substrate [4]: 13.2 s⁻¹
Km ([4]; read-out: KM of CPAF proteolysis of model substrate): 880 µM
